From patent US7678390B2, “Carbon monoxide as a biomarker and therapeutic agent” (priority 1999, dated 2010)

Tests used:
[1] = system: rats exposed to hyperoxia (>98% O2); assay: Survival of rats in lethal hyperoxia in the presence of CO; assay type: in vivo, rat; details: for % Survival 72 h / % Survival 100 h: hyperoxia (>98%)
Text: Pathogen-free male Sprague-Dawley rats (250-300 g) were purchased from Harlan Sprague-Dawley (Indianapolis, Ind.) and allowed to acclimate upon arrival for 7 days prior to experimentation. Animals were fed rodent chow and water ad libitum. All experimental protocols were approved by the Animal Care and Use Committee.
(§1) Animals were exposed to >98% O2 or 98% O2+CO mixtures at a flow rate of 12 liters/min in a 3.70-cubic-foot glass exposure chamber. Animals were supplied food and water during the exposures. CO at a concentration of 1% (10,000 ppm) in compressed air was mixed with >98% O2 in a stainless steel mixing cylinder prior to entering the exposure chamber. By varying the flow rates of CO into the mixing cylinder, concentrations delivered to the exposure chamber were controlled. Because the flow rate was primarily determined by the O2 flow, only the CO flow was changed to generate the different concentrations delivered to the exposure chamber. A carbon monoxide analyzer (Interscan Corporation, Chatsworth, Calif.) was used to measure CO levels continuously in the chamber. Gas samples were taken by the analyzer through a port in the top of the exposure chamber at a rate of 1 liter/min and analyzed by electrochemical detection with a sensitivity of 10 ppm to 600 ppm. CO levels in the chamber were recorded at hourly intervals and there were no changes in chamber CO concentrations once the chamber had equilibrated. O2 concentrations in the chamber were determined using a gas spectrometer.
We used clinically relevant in vivo models of oxidative stress to test the hypothesis that CO mediates the protective effects of HO-1 against oxidative stress. Hyperoxia when administered to animals produces pathophysiologic changes similar to those seen in human adult respiratory distress syndrome (ARDS) (Lee, et al., Am. J. Resp Cell Mol Biol. 14: 556-568; and Clerch, and Massaro, J. Clin. Invest. 91: 499-1508). […] These rats will uniformly die by 72 h of continuous hyperoxic exposure (Lee, et al. and Clerch, supra). In this study, one group of rats were placed in hyperoxia (>98% oxygen O2) alone while the second group of rats were placed in an identical chamber and exposed to the same levels of hyperoxia in the presence of a low concentration of CO (250 ppm). […] We observed concentration dependent protection against hyperoxia at both 72 and 100 h of hyperoxia exposure (Table 1). (P-value for the association between survival and CO concentration is 0.001 by logistic regression). Carboxyhemoglobin levels, a standard measurement of CO levels in the blood, correlated with increasing concentrations of CO exposure and survival of animals to lethal hyperoxia (Table 1, below).

[2] = system: rats exposed to hyperoxia (>98% O2); assay type: in vivo, rat
Text: as §1
Lungs were fixed by perfusion with 10% formalin at 20 cm H2O pressure and embedded in paraffin. Lung sections of […] were mounted onto slides pretreated with 3-aminopropylethoxysilane (Digene Diagnostics, Inc., Beltsville, Md.). Slides were baked for 30 min at 60° C. and washed twice in fresh xylene for 5 min to remove the paraffin. The slides were then rehydrated though a series of graded alcohols and then washed in distilled water for 3 min prior to staining with hematoxylin and eosin.
Animals were anesthesized with sodium pentobarbital 24 h after LPS administration or 56 h of hyperoxia exposure. BAL (35 ml/kg) was performed 4 times with PBS (pH 7.4). Cells were pooled from the lavages and centrifuged at 1200 g for 10 min. The supernatant was discarded and cells were resuspended in PBS. Cell counts were performed using a Neubaur hemocytometer. For differential analysis, samples were cytocentrifuged and stained with Diff-Quik. Measurement of Injury Markers Rats were removed at 56 h of hyperoxia and anesthetized with sodium pentobarbital. The pleural effusion was collected by inserting an 18 gauge needle and 10 cc syringe through the diaphragm and withdrawing all fluid present in the pleural cavity. BAL was performed as described above, and the first lavage was centrifuged at 1200 g for 10 min and the supernatant was assayed for the protein albumin as determined by Bromcresol Green Kit (BCG) from Sigma (St. Louis, Mo.). Arterial Blood Oxygen Tension and Carboxyhemoglobin Determination Indwelling catheters were surgically implanted into the carotid arteries of rats anesthetized with 3% v/v isoflurane. Animals were secured in jackets and tethers to allow movement about the cage and access to food and water which were placed inside the exposure chambers. Polyethelene tubing, connected to the catheter and threaded out through an airtight fitting in the lid of the chamber, was used for continuous heparin infusion throughout the exposure (20 U/ml at 0.1 ml/h) to maintain patency of the vessel. At each time point, 1 cc of blood was drawn into a heparinized syringe, sealed and placed on ice until analyzed for oxygen tension. Arterial oxygen tension and carboxyhemoglobin were determined using a BG3 Instrumentation Laboratory Blood Gas Analyzer and Co-oximeter (Boston, Mass.). […]

RAW 264.7 macrophages = assay: cGMP radioimmunoassay in macrophages; assay type: cell-based, mouse; details: 2 h
Method: Nitrate/Nitrite Analysis. Both analytes were measured in the cell culture media which had been ultrafiltered to remove all proteins greater than 10,000 molecular weight. All samples were than analyzed according to the assay kit protocols. (R & D, Minneapolis, Minn.). cGMP Radioimmunoassay (RIA) in macrophages. Macrophages or vascular smooth muscle cells were exposed to CO (250 ppm) or air. 20 min before the end of the exposure 1 mM of 3-isobutyl-1-methylxanthine (IBMX) was added to the cells to prevent phosphodiesterase degradation of cGMP. After 2 h of exposure, cells were removed from the exposure chamber, rinsed with PBS and then 0.5 ml of 75% EtOH was added to the plate and cells were scraped and disrupted via sonication for 5 s. Samples were then centrifuged at 2000 g for 10 min. Supernatants were transferred to fresh tubes and evaporated to dryness. cGMP concentration in the cell extracts was determined by radioimmunoassay (NEN, Boston, Mass.) according to manufacturer's instructions. cGMP was normalized to protein concentration as determined by Bradford assay. Statistical Analysis. Data are expressed as the mean±SE. Differences in measured variables between experimental and control group were assessed using Student's t tests. Statistical calculations were performed on a Macintosh personal computer using the Statview II Statistical Package (Abacus Concepts, Berkeley, Calif.). […]

[3] = hyperoxia in the presence of CO

With `[C-]#[O+]` [CO, carbon monoxide] the survival in hyperoxia ([1]; hyperoxia (>98% O2), CO 250 ppm, 72 h) was “all animals were alive at the 72 h time point”, the “% Survival 72 h” value ([1]; CO 50 ppm, 72 h) was 33% and the “% Survival 100 h” value ([1]; CO 50 ppm) was 0%. For the same compound, the “% Survival 72 h” value ([1]; CO 100 ppm, 72 h) was 50%, the “% Survival 100 h” value ([1]; CO 100 ppm) was 50% and the “% Survival 72 h” value ([1]; CO 250 ppm, 72 h) was 100%. The “% Survival 100 h” value ([1]; CO 250 ppm) was 80%, the “% Survival 72 h” value ([1]; CO 500 ppm, 72 h) was 100% and the “% Survival 100 h” value ([1]; CO 500 ppm) was 80%. The “neutrophil influx into the airways (BAL)” value ([2]; 56 h hyperoxia in the presence of CO (250 ppm)) was “significant reductions”, the lung apoptotic index ([2]; 56 h hyperoxia in the presence of CO (250 ppm), TUNEL/DAPI) was 1.8%±0.12 and the “volume of pleural effusion” value ([2]; 56 h hyperoxia in the presence of a low concentration of CO) was “marked inhibition”. The lung histology [2, 3] was “completely normal macroscopically and microscopically”, the “protein accumulation into the airways (bronchoalveolar lavage)” value [2, 3] was “significantly lower levels” and the “increase in cGMP” value (RAW 264.7 macrophages; 250 ppm CO) was “no significant increase”. It also gave a cGMP (RAW 264.7 macrophages; CO 250 ppm) of 3.95 ± 0.6 pmol/mg protein.
